Results: PMC5342071, “A first generation inhibitor of human Greatwall kinase, enabled by structural and functional characterisation of a minimal kinase domain construct” (Oncotarget, 2016)

Target: T1, hGWL-KinDom (Homo sapiens, UniProt Q96GX5)
T1 construct: that encoded amino acids (aa) 1-194 + ‘RTFC’ + 740-879 of hGWL; GST (rhinovirus 3C-protease cleavable) (N, cleaved yes); made in house; host or cells: E. coli Rosetta2(DE3)
Assay: Thermal shift assay
Assay type: binding
Conditions: read-out: temperature midpoint shift (ΔTm)
Method: Assays were performed using a modified version of the protocol previously described in [41].
The protein crystallised in spacegroup P212121, with two molecules comprising the asymmetric unit. For one molecule (chain A), amino acids 30-72, 86-177 and 740-854 are readily discernible in electron density maps, whilst for the other (chain B) amino acids 30-72, 86-177 and 740-854 are readily discernible.
For thermal denaturation, samples containing protein at 1.5 µM and 5 x SYPRO Orange (diluted from a 5000 x stock supplied in DMSO; Sigma-Aldrich, Gillingham, UK) were prepared in sample buffer: 20 mM HEPES.NaOH pH 7.5, 300 mM NaCl, 0.5 mM TCEP. Denaturation curves were monitored in 96-well PCR plates using a Roche LightCycler 480 II, with 465 and 580 nm filters for excitation and emission wavelengths, respectively. The program was as follows: 1 min at 20°C, followed by a continuous increment of 0.03°C/s to a final temperature of 85°C. Temperature midpoints (Tm) for each folded to unfolded transition were determined by non-linear regression fitting of a modified Boltzmann model to normalized data in Prism 6.0 (version 6.0h, GraphPad Software, La Jolla, CA USA). […]
After stopping the above non-radioactive kinase assay with 1 volume of Kinase-Glo Max reagent the mixture was allowed to incubate for a further 15 min. […] As this assay measures ATP, activity or ATP turnover was measured as the -ΔRLU. […]

T1 sequence (Q96GX5 with tags, fused parts or gaps limits assumed): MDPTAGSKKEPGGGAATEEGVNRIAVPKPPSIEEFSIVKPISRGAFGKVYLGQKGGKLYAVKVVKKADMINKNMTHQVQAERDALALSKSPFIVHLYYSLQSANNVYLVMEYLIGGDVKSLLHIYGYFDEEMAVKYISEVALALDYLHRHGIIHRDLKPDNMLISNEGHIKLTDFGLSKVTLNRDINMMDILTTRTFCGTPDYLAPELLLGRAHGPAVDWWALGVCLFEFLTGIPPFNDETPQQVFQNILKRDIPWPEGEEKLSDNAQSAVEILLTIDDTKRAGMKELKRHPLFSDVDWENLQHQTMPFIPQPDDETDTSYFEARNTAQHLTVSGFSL

In the case of `CN[C@@H]1C[C@H]2O[C@@](C)([C@@H]1OC)n1c3ccccc3c3c4c(c5c6ccccc6n2c5c31)C(=O)NC4` [STU, staurosporine], the ΔTm at 10 µM is reported as 8.2 °C.
